Three compounds from patent publication US20090318396A1, “CORTICOSTEROID LINKED BETA-AGONIST COMPOUNDS FOR USE IN THERAPY” (priority 2008, published 2009) can be followed below.

The nature of series [1]: Stability of steroid C-21 esters, carbonates and carbamates in rat lung homogenate. The settings on record: for Mean [Parent] (nM) at 2 hrs, 37° C.: parent compound; for Mean % compound remaining at 2 hrs, 37° C.: 900 nM, n=3.
Method: Lungs from Fischer 344 rats were obtained fresh by overnight delivery at 4° C. from BioReclamation Inc. (Hicksville, N.Y.). Lungs were weighed and homogenized in a 1:3 w/v ratio with sterile phosphate buffered saline (PBS, 10 mM, pH 7.4) in glass vials on ice. After centrifugation at 3,000×g for 10 min at 4° C. the supernatant was decanted into sterile conical tubes and placed on ice. The total protein content of the supernatant was determined by the bicinchoninic acid (BCA) method (Pierce Biotechnology, Rockford, Ill.), using bovine serum albumin (BSA) as the standard. Lung homogenates were prepared to a final concentration of 1 mg total protein/mL in 10 mM PBS, pH 7.4.
Heat-inactivation was achieved by incubation at 80° C. for 30 min, after which the homogenate was allowed to cool to room temperature, stored overnight at 4° C. The homogenate was used for the assay and standard curve preparations. Before use, each homogenate preparation was equilibrated for 15 min in a 37° C. water bath. […] DMSO (2.7 uL) added to 3 mL of temperature-equilibrated homogenate served as a control. Aliquots (100 uL) of homogenate+compound were added to 400 μL quenching solution consisting of 100% HPLC-grade acetonitrile+500 ng/mL glyburide for the zero time point (n=3 for each time point).
The glyburide served as an internal LC/MS/MS standard. The remainder of each drug+homogenate solution was aliquoted into a 96-well tissue culture plates. After an additional 30 min and 120 min incubation at 37° C., 100 μL aliquots were added to 400 μL quenching solution. Denatured proteins in the quenching solution were separated by centrifugation at 3000×g for 2 min at 4° C., and 160 μL of the supernatants were transferred to new 96-well plate for analysis by LC/MS/MS. Collection plates were covered with plastic film and were kept on ice. For storage, covered plates were and kept stored at −80° C. until further use.
An aliquot of 50 μL of each sample was diluted with 50 μL of water containing internal standard at 4° C. The diluted samples were then centrifuged for 20 minutes at 3000 rpm at 4° C. An aliquot of 20 μL of the solution was injected into the TSQ Ultra Quantum.
LC/MS/MS system. The compounds were separated by HPLC using a HyPurity C18 HPLC column (30×2.1 mm, 5μ) from ThermoHypersil. A Multiplex LX-2 HPLC system (Cohesive Technologies, Franklin, Mass.) with two identical Agilent 1100 series binary pumps (P/N G1312A) were used for elution and separation. Samples were maintained at 4° C. in an HTS Pal autosampler (LEAP Technologies, Carrboro, N.C.) in order to reduce any potential spontaneous hydrolysis of the compounds before injection onto the HPLC. The analytes were eluted using the following mobile phases; Mobile phase A contained 1% acetonitrile in 10 mM ammonium formate aqueous solution with 1% formic acid. Mobile phase B contained 80% acetonitrile in 10 mM ammonium formate with 1% formic acid. The HPLC elution program used to elute the analytes was as follows:
The samples were further analyzed by tandem mass spectrometry using a TSQ Quantum Ultra triple quadrupole mass spectrometer (Thermo Finnigan, San Jose, Calif.) using a selective reaction monitoring (SRM) scan type. The mass spectrometry parameters used were as follows:
Nine-point standard curves for each test compound were prepared and analyzed in heat-inactivated lung homogenate. […] The data expressed in Table 2 represent the mean (n=3) percent remaining compound in both types of homogenate at 2 hours, 37° C.
Series [2] has as its system ragweed-induced bronchoconstriction. Description: Ragweed-induced bronchoconstriction in dogs. In kind it is in vivo, beagle dogs. The settings on record: mean ± s.e.m. The method, then: The compound of Example 52 was assesed for bronchodilator activity in a ragweed-induced bronchoconstriction model in beagle dogs. Dogs were mechanically ventilated during each experiment. Airflow and tidal volume were measured using a differential pressure transducer located in front of the endotracheal tube. An esophageal balloon catheter placed in the esophagus was used to determine transpulmonary pressure. Pulmonary resistance and dynamic lung compliance were calculated from the simultaneous measurement of transpulmonary pressure and respiratory flow. The canine exposure system was designed to expose an anesthetized animal via an intubation tube. Dogs were administered vehicle or test article by inhalation 30 minutes before ragweed antigen exposure (n=4). Dogs were challenged with ragweed antigen (ragweed short, Ambrosia artemisifolia, Greer, Lenoir, N.C.) by inhalation (5 breaths). Immediately following ragweed challenge, changes in pulmonary resistance and compliance were measured for up to 30 minutes.

The test system of series [3] is tobacco-smoke-induced airway inflammation. Description: Tobacco smoke model of airway inflammation in mice. In kind it is in vivo, female C3H mice. The settings on record: mean ± s.e.m. The method, then:
Vehicle and test articles are delivered by intratracheal instillation in 10% ethanol water to animals anesthetized with 3-5% isoflurane (n=8 animals per test article group). All compounds will be delivered on a daily (5 days per week) schedule for 3 weeks during the smoke exposures. Mice were exposed to cigarette smoke for 6 hours per day, 5 days per week for 3 weeks, in H1000 or H2000 chambers. Type 2R4F research cigarettes (Kentucky Tobacco Research and Development Center) were used in the study. Total particulate material (TPM) exposure was kept at […] for the first week to allow animals to reduce adverse effects during adaptation to smoke exposure. TPM exposure was maintained between 100 and 250 mg TPM/m^3 during the remainder of the study. After 3 weeks, animals were euthanized and bronchoalveolar lavage fluid was obtained for cell differentials and cytokine analysis by Luminex multiplex immunoassay.

Series [4] relates to ovalbumin-induced lung inflammation. Description: Mouse ovalbumin model of lung inflammation. The settings on record: 3.0 mg/kg IT, 1x/day day 14 and 15; mouse OVA. In kind it is in vivo, Mice (Balb/c). As for the experimental part:
Mice (Balb/c) were immunized by intraperitoneal injection of ovalbumin (10 μg OVA suspended in 2 mg aluminum hydroxide) on day 0 and 7. One group was sensitized and treated with vehicle (NSV). One group was immunized with sterile water only and treated with vehicle, e.g. to serve as a nonsensitized (negative) control (Vehicle). […] On days 14 and 15, the animals were exposed to OVA by inhalation (3 h; 5 mg/m^3). Forty eight hours following the last OVA challenge (day 17) mice were sacrificed. Bronchoalveolar lavage (BAL) was taken from each animal to collect cells and fluid. Cell numbers and differentials were calculated from BAL.

The subject of series [5] is LPS-induced airway inflammation. Briefly: LPS-induced airway inflammation in rats. In kind it is in vivo, Male Fischer 344 rats. As for the experimental part:
Example 52 was evaluated in an LPS-induced airway inflammation model in rats. Male Fischer 344 rats (n 8/group) were treated with either vehicle or test article by intratracheal instillation in […] volume 1 hour prior to LPS challenge. Animals were then exposed to LPS by nose-only inhalation exposure for 10 minutes at 5 mg/m^3 resulting in an estimated 5 μg lung deposition. Animals were sacrificed 4 hours after LPS exposure. Lungs were lavaged for bronchoalveolar lavage cell differentials and cytokine analysis by Luminex multiplex immunoassay.

Series [6] deals with Ascaris suum antigen-induced bronchoconstriction and airway hyperreactivity. Briefly: Ascaris suum-induced pulmonary responses in sheep. In kind it is in vivo. The method, then: One breath unit is defined as one breath of a 1% w/v carbachol solution. Test article was administered either by a pre-dosing or duration of action protocol. In the pre-dosing regimen, animals were dosed once daily for four days, with the last dose administered 1 hr before antigen. In the duration of action regimen, animals were dosed once daily for four days, with the last dose administered 24 hours before antigen. Test article, Ascaris antigen, and carbachol were administered by nebulized aerosol to intubated sheep.

Series [7] can be described thus: Drug levels in plasma, BALF and lung after IT administration in the rat. The note with it: analyte after IT administration of Example 83, 1 mg/kg.
Where [8] appears, read: Inactive (heat-inactivated) rat lung homogenate.
The mark [9] stands for this setting: 10 μg/kg by inhalation 30 minutes before ragweed, n=4.
The mark [10] stands for this setting: 0.51 mg/kg i.t. daily, 3 weeks smoke.
The mark [11] stands for this setting: Duration of action regimen (last dose 24 hours before antigen), Post-Ascaris, Example 52 4.7 mg, ciclesonide 2.2 mg, salmeterol xinafoate 2.5 mg, n=4.
Setting [12] is: Duration of action regimen, 1 hour, n=4.
Setting [13] is: Duration of action regimen, 2 hours, n=4.
[14] abbreviates: Duration of action regimen, 3 hours, n=4.
[15] abbreviates: Duration of action regimen, 4 hours, n=4.
The mark [16] stands for this setting: Duration of action regimen, 5 hours, n=4.
The mark [17] stands for this setting: Duration of action regimen, 6 hours, n=4.
[18] abbreviates: Duration of action regimen, 6.5 hours, n=4.
Setting [19] is: Duration of action regimen, 7 hours, n=4.
Where [20] appears, read: Duration of action regimen, 7.5 hours, n=4.
Setting [21] is: Duration of action regimen, 8 hours, n=4.
[22] abbreviates: Duration of action regimen, Baseline, Example 52 4.7 mg, ciclesonide 2.2 mg, salmeterol xinafoate 2.5 mg, n=4.
Setting [23] is: Duration of action regimen, Post-Antigen, n=4.

For `CC(C)C(=O)OCC(=O)[C@@]12O[C@H](C3CCCCC3)O[C@@H]1C[C@H]1[C@@H]3CCC4=CC(=O)C=C[C@]4(C)[C@H]3[C@@H](O)C[C@@]12C` [Ciclesonide, ciclesonide], the entries for the “Mean [Parent] (nM) at 2 hrs, 37° C.” value in series [1] (Active homogenate) and in series [1] (Inactive homogenate) were 18 nM and 154 nM, respectively. The “Mean % compound remaining at 2 hrs, 37° C.” value in series [1] (Active rat lung homogenate) was determined as 12%; in series [1] (setting [8]), 88%. Moreover, in series [2] (setting [9]), the “Pulmonary Resistance (% of Baseline)” value is on record as 302.3 ± 24.8 % of Baseline. The IL-1α amounted to 5.25 ± 0.85 pg/mL in series [3] (0.31 mg/kg i.t.) and 5.50 ± 0.96 pg/mL in series [3] (setting [10]). For the same compound, the MIP-1α worked out at 8.31 ± 1.17 pg/mL in series [3] (0.31 mg/kg i.t.) and 10.02 ± 1.75 pg/mL in series [3] (setting [10]). Moreover, the Neutrophils in series [3] (0.31 mg/kg i.t.) is reported as 13.9 ± 2.1 ×10^4/ml; in series [3] (setting [10]), 15.0 ± 1.5 ×10^4/ml; in series [5] (3 mg/kg intratracheal, 1 hour prior to LPS, rat BAL, mean ± s.e.m.) it was 9.7 ± 0.89 × 10^4/ml. Besides, the “Eosinophils in BAL, Mean” value in series [4] came to 60170 mL⁻¹. The “Neutrophils in BAL, Mean” value in series [4] turned out to be 4790 mL⁻¹. Besides, the TNFα in series [5] (3 mg/kg intratracheal, rat BAL, mean ± s.e.m.) is 629.2 ± 330.0 pg/mL. Also, the “Inhibition of LPS-induced airway inflammation measured as neutrophil influx and TNFα production” value in series [5] (at doses tested, versus vehicle control) is “significantly inhibit”. Also, the “Bronchoconstriction, Lung Resistance (% Increase)” value (shortened to “Bronchoconstriction … (% Increase)”) in series [6] (setting [11]) is 416 % Increase; in series [6] (setting [12]), 224 % Increase; in series [6] (setting [13]), 146 % Increase; in series [6] (setting [14]), 69 % Increase; in series [6] (setting [15]), 21 % Increase; in series [6] (setting [16]), 44 % Increase. Moreover, the “Bronchoconstriction … (% Increase)” value in series [6] (setting [17]) was 66 % Increase; in series [6] (setting [18]) it was 71 % Increase; in series [6] (setting [19]) it was 65 % Increase; in series [6] (setting [20]) it was 62 % Increase; in series [6] (setting [21]) it was 50 % Increase; in series [6] (Predosing regimen (last dose 1 hr before antigen), Post-Ascaris, Example 52 4.7 mg, ciclesonide 2.2 mg, n=2), 305 % Increase. The “Bronchoconstriction … (% Increase)” value stood at 142 % Increase in series [6] (Predosing regimen, 1 hour, n=2); 44 % Increase in series [6] (Predosing regimen, 2 hours, n=2); 8 % Increase in series [6] (Predosing regimen, 3 hours, n=2); 6 % Increase in series [6] (Predosing regimen, 4 hours, n=2); 14 % Increase in series [6] (Predosing regimen, 5 hours, n=2); 28 % Increase in series [6] (Predosing regimen, 6 hours, n=2). For the same compound, the “Bronchoconstriction … (% Increase)” value in series [6] (Predosing regimen, 6.5 hours, n=2) worked out at 12 % Increase; in series [6] (Predosing regimen, 7 hours, n=2), 28 % Increase; in series [6] (Predosing regimen, 7.5 hours, n=2) it was 33 % Increase; in series [6] (Predosing regimen, 8 hours, n=2), 15 % Increase. Besides, the “Hyperreactivity PC400” value in series [6] (setting [22]) came out at 28.3 carbachol breath units; in series [6] (setting [23]), 21.5 carbachol breath units; in series [6] (Predosing regimen, Baseline, Example 52 4.7 mg, ciclesonide 2.2 mg, n=2) it was 26.5 carbachol breath units; in series [6] (Predosing regimen, Post-Antigen (24 hours after challenge), n=2), 25.5 carbachol breath units. Also, the “Effect on late phase bronchoconstriction and development of airway hyperreactivity” value in series [6] (duration of action regimen) is “reduced efficacy”.
As for `OCc1cc(C(O)CNCCCCCCOCCCCc2ccccc2)ccc1O` (centres unmarked) [Salmeterol Xinafoate, salmeterol xinafoate], the “Pulmonary Resistance (% of Baseline)” value in series [2] (3 μg/kg by inhalation) is on record as 265.6 ± 38.8 % of Baseline; in series [2] (setting [9]) it was 177.8 ± 14.4 % of Baseline. In series [3] (0.57 mg/kg i.t.), this compound returned an IL-1α of 4.22 ± 0.73 pg/mL. In addition, in series [3] (0.57 mg/kg i.t.), the MIP-1α was found to be 6.09 ± 1.38 pg/mL. Also, in series [3] (0.57 mg/kg i.t.), the Neutrophils is on record as 10.9 ± 2.5 ×10^4/ml. Besides, the “Bronchoconstriction … (% Increase)” value in series [6] (setting [11]) worked out at 370 % Increase; in series [6] (setting [12]) it was 213 % Increase; in series [6] (setting [13]), 114 % Increase; in series [6] (setting [14]), 64 % Increase; in series [6] (setting [15]), 25 % Increase; in series [6] (setting [16]), 54 % Increase. In addition, the “Bronchoconstriction … (% Increase)” value in series [6] (setting [17]) turned out to be 86 % Increase; in series [6] (setting [18]), 85 % Increase; in series [6] (setting [19]), 83 % Increase; in series [6] (setting [20]), 76 % Increase; in series [6] (setting [21]), 72 % Increase. The “Hyperreactivity PC400” value in series [6] (setting [22]) was determined as 29.5 carbachol breath units; in series [6] (setting [23]) it was 22.8 carbachol breath units.
As to `C[C@]12C=CC(=O)C=C1CC[C@@H]1[C@@H]2[C@@H](O)C[C@@]2(C)[C@H]1C[C@H]1O[C@@H](C3CCCCC3)O[C@]12C(=O)CO` [des-ciclesonide, desisobutyryl ciclesonide, reference compound], the “Mean [Parent] (nM) at 2 hrs, 37° C.” value came to 119 nM in series [1] (Active homogenate) and 84 nM in series [1] (Inactive homogenate). The “Mean % compound remaining at 2 hrs, 37° C.” value is 98% in series [1] (Active rat lung homogenate) and 71% in series [1] (setting [8]). Further, the “Plasma Conc” value in series [7] (0.5 hr), in series [7] (2.0 hr) and in series [7] (4.0 hr) was “BLQ” throughout.
